Results published in US20090311237A1, “Combination therapy using a soluble hyaluronidase and a bisphosphonate” (priority 2008, published 2009).
Where two headings read alike, the source gives them in different places.

Test: Phase 1 Stage 1 clinical pharmacokinetics of SC ZA co-administered with rHuPH20
Type: in vivo, human
Details: human, serum, sc; for MRT: read-out: MRT; for Tmax: read-out: Tmax; for AUC(0-inf): read-out: AUC (0-∞); for AUC(0-t): ZA […] SC
Method: A pharmacokinetic study of zoledronic acid (ZA) co-administered with rHuPH20 in human subjects was conducted. The primary objective of the study was to determine the bioavailability of zoledronic acid dosed via subcutaneous (SC) co-administration with human recombinant hyaluronidase PH20 (rHuPH20). […] The patients were administered the prescribed dosage formulations as follows: Cohorts 1-5 were administered a single subcutaneous infusion in a dosage volume of 100 ml at a rate of 3 mL/min. […] The dosing solution is administered via needle or catheter into the SC space of the left anterior thigh (midway between the anterior iliac crest and the cephalad border of the patella). For cohorts 1-5, the dosing solutions were administered by a controlled rate infusion pump at approximately 3 mL/minute. […] The dosing solutions were administered by syringe push bolus injection. […] Serum concentration of ZA was determined using a qualified LC-MS-MS assay after derivatization with diazomethane (Zhu, L S et al. (2006) Rapid Commun. […] The assay range was from 2.0 to 400 ng/mL with a lower limit of quantitation (LLOQ) at 2.0 ng/mL. […] Non-compartmental analysis was used for derivation of primary and secondary pharmacokinetic (PK) parameters. […] Summary statistics (mean, standard deviation, and median) were calculated using JMP or Microsoft Excel.

[1] = ZA 1 mg SC + 24000 U rHuPH20, individual subjects
[2] = ZA 1 mg SC + 24000 U rHuPH20, mean, n=3
[3] = ZA 1 mg SC + 24000 U rHuPH20, median, n=3
[4] = ZA 2 mg SC + 24000 U rHuPH20, individual subjects
[5] = ZA 2 mg SC + 24000 U rHuPH20, mean, n=3
[6] = ZA 2 mg SC + 24000 U rHuPH20, median, n=3
[7] = ZA 5 mg SC + 24000 U rHuPH20, individual subjects
[8] = ZA 5 mg SC + 24000 U rHuPH20, mean, n=3
[9] = ZA 5 mg SC + 24000 U rHuPH20, median, n=3

With `O=P(O)(O)C(O)(Cn1ccnc1)P(=O)(O)O` [ZA, 1-hydroxy-2-(1H-imidazol-1-yl)ethylidene-1,1-bisphosphonic acid] the MRT [1] was 6.93 h, the Tmax [1] was 1.31 h and the Vd/F (ZA 1 mg SC + 24000 U rHuPH20, individual subjects, read-out: Vss/F) was 0.988 L/kg. The Vd/F (ZA 1 mg SC + 24000 U rHuPH20, individual subjects, read-out: Vz/F) was 2.65 L/kg, the CL/F [2] was 2.15 mL/min/kg and the Cmax [2] was 29.5 ng/mL. It also gave an AUC(0-inf) [2] of 134 ng·h/mL, an MRT [2] of 6.61 h and a Tmax [2] of 1.03 h. It also gave a Vd/F (ZA 1 mg SC + 24000 U rHuPH20, mean, n=3, read-out: Vss/F) of 0.852 L/kg, a Vd/F (ZA 1 mg SC + 24000 U rHuPH20, mean, n=3, read-out: Vz/F) of 2.13 L/kg and a CL/F [3] of 2.38 mL/min/kg. For the same compound, the Cmax [3] was 30.1 ng/mL, the AUC(0-inf) [3] was 122 ng·h/mL and the MRT [3] was 6.66 h. It also gave a Tmax [3] of 1.06 h, a Vd/F (ZA 1 mg SC + 24000 U rHuPH20, median, n=3, read-out: Vss/F) of 0.988 L/kg and a Vd/F (ZA 1 mg SC + 24000 U rHuPH20, median, n=3, read-out: Vz/F) of 2.05 L/kg. For the same compound, the CL/F [4] was 2.25 mL/min/kg, the Cmax [4] was 62.8 ng/mL and the AUC(0-inf) [4] was 246 ng·h/mL. For the same compound, the MRT [4] was 5.72 h, the Tmax [4] was 1.31 h and the Vd/F (ZA 2 mg SC + 24000 U rHuPH20, individual subjects, read-out: Vss/F) was 0.774 L/kg. It also gave a Vd/F (ZA 2 mg SC + 24000 U rHuPH20, individual subjects, read-out: Vz/F) of 2.48 L/kg, a CL/F [5] of 2.11 mL/min/kg and a Cmax [5] of 58.2 ng/mL. It also gave an AUC(0-inf) [5] of 262 ng·h/mL, an MRT [5] of 7.5 h and a Tmax [5] of 1.48 h. It also gave a Vd/F (ZA 2 mg SC + 24000 U rHuPH20, mean, n=3, read-out: Vss/F) of 0.941 L/kg, a Vd/F (ZA 2 mg SC + 24000 U rHuPH20, mean, n=3, read-out: Vz/F) of 2.87 L/kg and a CL/F [6] of 2.06 mL/min/kg. The Cmax [6] was 58.7 ng/mL, the AUC(0-inf) [6] was 246 ng·h/mL and the MRT [6] was 6.19 h. It also gave a Tmax [6] of 1.56 h, a Vd/F (ZA 2 mg SC + 24000 U rHuPH20, median, n=3, read-out: Vss/F) of 0.774 L/kg and a Vd/F (ZA 2 mg SC + 24000 U rHuPH20, median, n=3, read-out: Vz/F) of 2.48 L/kg. For the same compound, the CL/F [7] was 2.11 mL/min/kg, the Cmax [7] was 131 ng/mL and the AUC(0-inf) [7] was 620 ng·h/mL. The MRT [7] was 10.9 h, the Tmax [7] was 0.81 h and the Vd/F (ZA 5 mg SC + 24000 U rHuPH20, individual subjects, read-out: Vss/F) was 1.39 L/kg. For the same compound, the Vd/F (ZA 5 mg SC + 24000 U rHuPH20, individual subjects, read-out: Vz/F) was 4.27 L/kg, the CL/F [8] was 1.85 mL/min/kg and the Cmax [8] was 132 ng/mL. The AUC(0-inf) [8] was 662 ng·h/mL, the MRT [8] was 12.5 h and the Tmax [8] was 0.98 h. For the same compound, the Vd/F (ZA 5 mg SC + 24000 U rHuPH20, mean, n=3, read-out: Vss/F) was 1.38 L/kg, the Vd/F (ZA 5 mg SC + 24000 U rHuPH20, mean, n=3, read-out: Vz/F) was 3.92 L/kg and the CL/F [9] was 1.85 mL/min/kg. It also gave a Cmax [9] of 131 ng/mL, an AUC(0-inf) [9] of 637 ng·h/mL and an MRT [9] of 12.7 h. It also gave a Tmax [9] of 0.81 h, a Vd/F (ZA 5 mg SC + 24000 U rHuPH20, median, n=3, read-out: Vss/F) of 1.39 L/kg and a Vd/F (ZA 5 mg SC + 24000 U rHuPH20, median, n=3, read-out: Vz/F) of 3.91 L/kg. It also gave an AUC(0-t) (AUC (0-12 h), Subj 1, inf 0.554 hr, PH20 23928 U) of 29.2 ng·h/mL, an AUC(0-t) (AUC (0-12 h), Subj 8, inf 0.531 hr, PH20 22944 U) of 28.8 ng·h/mL and an AUC(0-t) (AUC (0-12 h), Subj 11, inf 0.554 hr, PH20 23928 U) of 29.4 ng·h/mL. The AUC(0-t) (AUC (0-12 h), Subj 16, inf 0.553 hr, PH20 23904 U) was 60.8 ng·h/mL, the AUC(0-t) (AUC (0-12 h), Subj 18, inf […], PH20 23304 U) was 66.2 ng·h/mL and the AUC(0-t) (AUC (0-12 h), Subj 21, inf 0.556 hr, PH20 24000 U) was 62.4 ng·h/mL. It also gave an AUC(0-t) (AUC (0-12 h), Subj 25, inf 0.549 hr, PH20 23736 U) of 103 ng·h/mL, an AUC(0-t) (AUC (0-12 h), Subj 26, inf […], PH20 23088 U) of 137 ng·h/mL and an AUC(0-t) (AUC (0-12 h), Subj 31, inf 0.554 hr, PH20 23952 U) of 213 ng·h/mL. For the same compound, the AUC(0-t) (AUC (0-12 h), Subj 32, inf 0.556 hr, PH20 24000 U) was 238 ng·h/mL, the AUC(0-t) (AUC (0-12 h), Subj 51, inf 0.251 hr, PH20 6024 U) was 384 ng·h/mL and the AUC(0-t) (AUC (0-12 h), Subj 77, inf […], PH20 6000 U) was 516 ng·h/mL. It also gave an AUC(0-t) (AUC (0-24 h), Subj 1, inf 0.554 hr, PH20 23928 U) of 29.4 ng·h/mL, an AUC(0-t) (AUC (0-24 h), Subj 8, inf 0.531 hr, PH20 22944 U) of 29.4 ng·h/mL and an AUC(0-t) (AUC (0-24 h), Subj 11, inf 0.554 hr, PH20 23928 U) of 29.9 ng·h/mL. It also gave an AUC(0-t) (AUC (0-24 h), Subj 16, inf 0.553 hr, PH20 23904 U) of 62.9 ng·h/mL, an AUC(0-t) (AUC (0-24 h), Subj 18, inf […], PH20 23304 U) of 68.5 ng·h/mL and an AUC(0-t) (AUC (0-24 h), Subj 21, inf 0.556 hr, PH20 24000 U) of 64.7 ng·h/mL. For the same compound, the AUC(0-t) (AUC (0-24 h), Subj 25, inf 0.549 hr, PH20 23736 U) was 112 ng·h/mL, the AUC(0-t) (AUC (0-24 h), Subj 26, inf […], PH20 23088 U) was 147 ng·h/mL and the AUC(0-t) (AUC (0-24 h), Subj 31, inf 0.554 hr, PH20 23952 U) was 228 ng·h/mL. It also gave an AUC(0-t) (AUC (0-24 h), Subj 32, inf 0.556 hr, PH20 24000 U) of 257 ng·h/mL, an AUC(0-t) (AUC (0-24 h), Subj 51, inf 0.251 hr, PH20 6024 U) of 430 ng·h/mL and an AUC(0-t) (AUC (0-24 h), Subj 77, inf […], PH20 6000 U) of 566 ng·h/mL. The AUC(0-t) (AUC (0-48 h), Subj 1, inf 0.554 hr, PH20 23928 U) was 29.4 ng·h/mL, the AUC(0-t) (AUC (0-48 h), Subj 8, inf 0.531 hr, PH20 22944 U) was 29.4 ng·h/mL and the AUC(0-t) (AUC (0-48 h), Subj 11, inf 0.554 hr, PH20 23928 U) was 29.9 ng·h/mL. It also gave an AUC(0-t) (AUC (0-48 h), Subj 16, inf 0.553 hr, PH20 23904 U) of 64.2 ng·h/mL.
